Results reported in ChEMBL document CHEMBL3865816, “Design, synthesis and biological evaluation of novel azaspiro analogs of linezolid as antibacterial and antitubercular agents” (Eur J Med Chem, 2016).
Values after ≈ are worked out from the molar mass of the structure shown.

Legend:
Type in all cases: functional
Escherichia coli [1] = test: Antibacterial activity against Escherichia coli NCIM 2688 at 30 ug/ml measured after 8 hrs by spectrophotometric method; conditions: NCIM 2688, 8 h
[2] = system: Mycobacterium tuberculosis; test: Antitubercular activity against dormant stage Mycobacterium tuberculosis H37Ra measured after 12 days by XTT assay; conditions: 288 h
[3] = system: Mycobacterium tuberculosis; test: Antitubercular activity against dormant stage Mycobacterium tuberculosis H37Ra at 30 ug/ml measured after 12 days by XTT assay; conditions: 288 h
Escherichia coli [4] = test: Antibacterial activity against Escherichia coli NCIM 2688 at 3 ug/ml measured after 8 hrs by spectrophotometric method; conditions: NCIM 2688, 8 h
Staphylococcus aureus [5] = test: Antibacterial activity against Staphylococcus aureus NCIM 2079 at 30 ug/ml measured after 12 hrs by spectrophotometric method; conditions: NCIM 2079, 12 h
Bacillus subtilis [6] = test: Antibacterial activity against Bacillus subtilis NCIM 2010 at 10 ug/ml measured after 12 hrs by spectrophotometric method; conditions: NCIM 2010, 12 h
Bacillus subtilis [7] = test: Antibacterial activity against Bacillus subtilis NCIM 2010 at 30 ug/ml measured after 12 hrs by spectrophotometric method; conditions: NCIM 2010, 12 h
Bacillus subtilis [8] = test: Antibacterial activity against Bacillus subtilis NCIM 2010 measured after 12 hrs by spectrophotometric method; conditions: NCIM 2010, 12 h
Pseudomonas aeruginosa [9] = test: Antibacterial activity against Pseudomonas aeruginosa NCIM 2036 at 3 ug/ml measured after 8 hrs by spectrophotometric method; conditions: NCIM 2036, 8 h
[10] = system: Mycobacterium tuberculosis; test: Antitubercular activity against dormant stage Mycobacterium tuberculosis H37Ra at 3 ug/ml measured after 12 days by XTT assay; conditions: 288 h
Staphylococcus aureus [11] = test: Antibacterial activity against Staphylococcus aureus NCIM 2079 measured after 12 hrs by spectrophotometric method; conditions: NCIM 2079, 12 h
Staphylococcus aureus [12] = test: Antibacterial activity against Staphylococcus aureus NCIM 2079 at 10 ug/ml measured after 12 hrs by spectrophotometric method; conditions: NCIM 2079, 12 h
Pseudomonas aeruginosa [13] = test: Antibacterial activity against Pseudomonas aeruginosa NCIM 2036 at 30 ug/ml measured after 8 hrs by spectrophotometric method; conditions: NCIM 2036, 8 h
Escherichia coli [14] = test: Antibacterial activity against Escherichia coli NCIM 2688 at 10 ug/ml measured after 8 hrs by spectrophotometric method; conditions: NCIM 2688, 8 h
Escherichia coli [15] = test: Antibacterial activity against Escherichia coli NCIM 2688 measured after 8 hrs by spectrophotometric method; conditions: NCIM 2688, 8 h
Staphylococcus aureus [16] = test: Antibacterial activity against Staphylococcus aureus NCIM 2079 at 3 ug/ml measured after 12 hrs by spectrophotometric method; conditions: NCIM 2079, 12 h
Pseudomonas aeruginosa [17] = test: Antibacterial activity against Pseudomonas aeruginosa NCIM 2036 measured after 8 hrs by spectrophotometric method; conditions: NCIM 2036, 8 h
Bacillus subtilis [18] = test: Antibacterial activity against Bacillus subtilis NCIM 2010 at 3 ug/ml measured after 12 hrs by spectrophotometric method; conditions: NCIM 2010, 12 h
[19] = system: Mycobacterium tuberculosis; test: Antitubercular activity against dormant stage Mycobacterium tuberculosis H37Ra at 10 ug/ml measured after 12 days by XTT assay; conditions: 288 h
Pseudomonas aeruginosa [20] = test: Antibacterial activity against Pseudomonas aeruginosa NCIM 2036 at 10 ug/ml measured after 8 hrs by spectrophotometric method; conditions: NCIM 2036, 8 h

| SMILES | inhibition at 30 µg/mL (Escherichia coli [1]) [%] | IC50 [2] [µg/mL] | MIC [2] [µg/mL] | inhibition at 30 µg/mL [3] [%] | inhibition at 3 µg/mL (Escherichia coli [4]) [%] | inhibition at 30 µg/mL (Staphylococcus aureus [5]) [%] | inhibition at 10 µg/mL (Bacillus subtilis [6]) [%] | inhibition at 30 µg/mL (Bacillus subtilis [7]) [%] | IC50 (Bacillus subtilis [8]) [µg/mL] | MIC (Bacillus subtilis [8]) [µg/mL] | inhibition at 3 µg/mL (Pseudomonas aeruginosa [9]) [%] | inhibition at 3 µg/mL [10] [%] | IC50 (Staphylococcus aureus [11]) [µg/mL] | MIC (Staphylococcus aureus [11]) [µg/mL] | inhibition at 10 µg/mL (Staphylococcus aureus [12]) [%] | inhibition at 30 µg/mL (Pseudomonas aeruginosa [13]) [%] | inhibition at 10 µg/mL (Escherichia coli [14]) [%] | IC50 (Escherichia coli [15]) [µg/mL] | MIC (Escherichia coli [15]) [µg/mL] | inhibition at 3 µg/mL (Staphylococcus aureus [16]) [%] | also measured |
| --- | --- | --- | --- | --- | --- | --- | --- | --- | --- | --- | --- | --- | --- | --- | --- | --- | --- | --- | --- | --- | --- |
| CC(C)(C)NC(=S)NC[C@H]1CN(c2ccc(N3CC4(COC4)C3)c(F)c2)C(=O)O1 | 100 | > 100 | > 100 | -6.69 | 75.7 | 98.9 | 79.3 | 97.2 | > 100 | > 100 | 0 | 9.56 | 1.45 (≈ 3.43 µM) | 9.15 (≈ 21.7 µM) | 90.4 | 62.7 | 84 | 1.38 (≈ 3.27 µM) | 22.8 (≈ 53.9 µM) | 82.1 | IC50 (Pseudomonas aeruginosa [17]): > 100 µg/mL; MIC (Pseudomonas aeruginosa [17]): > 100 µg/mL; inhibition at 3 µg/mL (Bacillus subtilis [18]): 66.3%; inhibition at 10 µg/mL [19]: -3.66%; inhibition at 10 µg/mL (Pseudomonas aeruginosa [20]): 37.5% |
| CC1(C)[C@@]2(C)CC[C@]1(C(=O)NC[C@H]1CN(c3ccc(N4CC5(COC5)C4)c(F)c3)C(=O)O1)OC2=O | 39.5 | > 100 | > 100 | 15.6 | 20 | 70.2 | 53.8 | 69.8 | > 100 | > 100 | 50.6 | 9.81 | > 100 | > 100 | 51.1 | 56.4 | 28.8 | > 100 | > 100 | 50.6 | IC50 (Pseudomonas aeruginosa [17]): > 100 µg/mL; MIC (Pseudomonas aeruginosa [17]): > 100 µg/mL; inhibition at 3 µg/mL (Bacillus subtilis [18]): 40.5%; inhibition at 10 µg/mL [19]: -38.5%; inhibition at 10 µg/mL (Pseudomonas aeruginosa [20]): 55% |
| CC(=O)N1CCC2(C1)CN(c1ccc(N3CCOCC3)c(F)c1)C(=O)O2 (stereo not given) | 46 | > 100 | > 100 | 12 | 36.2 | 53.6 | 32.2 | 42.2 | > 100 | > 100 | 42.8 | 19.7 | > 100 | > 100 | 50.2 | 56.2 | 42 | > 100 | > 100 | 45.2 | IC50 (Pseudomonas aeruginosa [17]): > 100 µg/mL; MIC (Pseudomonas aeruginosa [17]): > 100 µg/mL; inhibition at 3 µg/mL (Bacillus subtilis [18]): 23.9%; inhibition at 10 µg/mL [19]: -8.05%; inhibition at 10 µg/mL (Pseudomonas aeruginosa [20]): 48.4% |
| O=C(NC[C@H]1CN(c2ccc(N3CC4(COC4)C3)c(F)c2)C(=O)O1)Nc1ccc(Cl)cc1 | 59.1 | > 100 | > 100 | 30.2 | 7.39 | 62.1 | 63.6 | 65 | > 100 | > 100 | 12.4 | 6.78 | > 100 | > 100 | 57.3 | 62 | 31.9 | > 100 | > 100 | 47.4 | IC50 (Pseudomonas aeruginosa [17]): > 100 µg/mL; MIC (Pseudomonas aeruginosa [17]): > 100 µg/mL; inhibition at 3 µg/mL (Bacillus subtilis [18]): 59.6%; inhibition at 10 µg/mL [19]: 25.6%; inhibition at 10 µg/mL (Pseudomonas aeruginosa [20]): 33.1% |
| OC1(CNc2ccc(N3CCOCC3)c(F)c2)CCN(Cc2ccccc2)C1 (stereo not given) | 53.9 | > 100 | > 100 | 5.62 | 45 | 53.2 | 47.1 | 52.2 | > 100 | > 100 | 14.4 | 8 | > 100 | > 100 | 48.9 | 63.7 | 49.6 | > 100 | > 100 | 44.3 | IC50 (Pseudomonas aeruginosa [17]): > 100 µg/mL; MIC (Pseudomonas aeruginosa [17]): > 100 µg/mL; inhibition at 3 µg/mL (Bacillus subtilis [18]): 44.7%; inhibition at 10 µg/mL [19]: 6.11%; inhibition at 10 µg/mL (Pseudomonas aeruginosa [20]): 37.1% |
| O=C1O[C@@H](CNC(=O)C23CC4CC(CC(C4)C2)C3)CN1c1ccc(N2CC3(COC3)C2)c(F)c1 | 60.1 | > 100 | > 100 | 22.1 | 36.8 | 71.1 | 62 | 69.8 | > 100 | > 100 | 49.6 | 9.46 | > 100 | > 100 | 55.5 | 40.7 | 43.3 | > 100 | > 100 | 54.9 | IC50 (Pseudomonas aeruginosa [17]): > 100 µg/mL; MIC (Pseudomonas aeruginosa [17]): > 100 µg/mL; inhibition at 3 µg/mL (Bacillus subtilis [18]): 51.3%; inhibition at 10 µg/mL [19]: 4.41%; inhibition at 10 µg/mL (Pseudomonas aeruginosa [20]): 39.2% |
| O=C1O[C@@H](CNC(=S)Nc2ccc(Cl)cc2)CN1c1ccc(N2CC3(COC3)C2)c(F)c1 | 69.9 | > 100 | > 100 | -0.48 | 47.7 | 47.5 | 45.6 | 62.6 | > 100 | > 100 | 34 | 14.8 | > 100 | > 100 | 37.9 | 71.2 | 42.5 | > 100 | > 100 | 18.8 | IC50 (Pseudomonas aeruginosa [17]): > 100 µg/mL; MIC (Pseudomonas aeruginosa [17]): > 100 µg/mL; inhibition at 3 µg/mL (Bacillus subtilis [18]): 24.1%; inhibition at 10 µg/mL [19]: 15.7%; inhibition at 10 µg/mL (Pseudomonas aeruginosa [20]): 49.4% |
